Measured values published in ChEMBL document CHEMBL4602732, “Optimizing Pyrazolopyrimidine Inhibitors of Calcium Dependent Protein Kinase 1 for Treatment of Acute and Chronic Toxoplasmosis” (J Med Chem, 2020).
Active and inactive are the calls of the source. The rule behind the calls is not given here.

What was measured:
Toxoplasma gondii [1] = test: Antiparasitic activity against type 1 Toxoplasma gondii RH tachyzoites infected in CD1 mouse assessed as reduction in parasite dissemination at 60 mg/kg, po administered once daily via gavage for 7 days by bioluminescence assay; assay type: functional, organism-based
Toxoplasma gondii [2] = test: Antiparasitic activity against type 1 Toxoplasma gondii RH tachyzoites infected in CD1 mouse assessed as reduction in mouse death at 30 mg/kg, po administered twice daily via gavage for 7 days by bioluminescence assay; assay type: functional, organism-based
[3] = biological target: T1, ALK5 (TGF-beta receptor type-1) (Homo sapiens, UniProt P36897); test: Inhibition of human […] N-terminal GST-tagged ALK5 (200 to 503 residues) expressed in baculovirus expression system at 1 uM by Lanthascreen assay relative to control
T1 sequence (P36897 whole entry): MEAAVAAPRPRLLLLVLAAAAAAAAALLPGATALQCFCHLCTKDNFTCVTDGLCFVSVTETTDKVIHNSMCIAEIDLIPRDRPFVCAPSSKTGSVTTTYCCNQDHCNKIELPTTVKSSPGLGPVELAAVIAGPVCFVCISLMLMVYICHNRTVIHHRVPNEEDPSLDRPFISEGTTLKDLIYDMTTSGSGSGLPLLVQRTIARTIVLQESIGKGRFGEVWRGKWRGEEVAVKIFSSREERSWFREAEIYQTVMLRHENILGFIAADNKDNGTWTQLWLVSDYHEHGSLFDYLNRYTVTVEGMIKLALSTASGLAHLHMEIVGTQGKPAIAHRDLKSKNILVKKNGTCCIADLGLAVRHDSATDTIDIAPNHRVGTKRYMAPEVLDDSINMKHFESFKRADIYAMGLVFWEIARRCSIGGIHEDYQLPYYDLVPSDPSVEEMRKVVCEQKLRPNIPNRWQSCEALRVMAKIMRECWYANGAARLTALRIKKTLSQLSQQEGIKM

[4] = Time at which plasma concentration stays above in vitro EC50 for antiparasitic activity against 2F clone of type 1 Toxoplasma gondii RH tachyzoites expressing luciferase infected in HFF in CD1 mouse at 30 mg/kg, po; assay type: ADME, organism-based; conditions: in vivo
MDR1 = test: Efflux ratio of apparent permeability across basolateral to apical side over apical to basolateral side in MDCK2-MDR1 cells at 2 uM measured after 150 mins by LC-MS/MS analysis; assay type: ADME, cell-based, Canis lupus familiaris; conditions: dog, MDCK-MDR1
Toxoplasma gondii [5] = test: Antiparasitic activity against type 1 Toxoplasma gondii RH tachyzoites infected in CD1 mouse assessed as reduction in parasite dissemination at 15 mg/kg, po administered four times daily via gavage for 7 days by bioluminescence assay; assay type: functional, organism-based
Toxoplasma gondii [6] = test: Protection against reactivation of type 2 Toxoplasma gondii ME49 infection in sulfadiazin-treated Ifngr1-/- CD1 mouse assessed as increase in weight gain at 60 mg/kg, po administered twice daily via gavage for 21 days measured up to 30 days; assay type: functional, organism-based
Toxoplasma gondii [7] = test: Antiparasitic activity against type 1 Toxoplasma gondii RH tachyzoites infected in CD1 mouse assessed as reduction in parasite expansion at 30 mg/kg, po administered twice daily via gavage for 7 days by bioluminescence assay; assay type: functional, organism-based
Toxoplasma gondii [8] = test: Antiparasitic activity against Toxoplasma gondii type III CTG tachyzoites infected in HFF assessed as reduction in parasite growth; assay type: functional, organism-based
Toxoplasma gondii [9] = test: Protection against reactivation of type 2 Toxoplasma gondii ME49 infection in sulfadiazin-treated Ifngr1-/- CD1 mouse assessed as increase in mouse survival at 60 mg/kg, po administered twice daily via gavage for 21 days measured up to 30 days; assay type: functional, organism-based
Toxoplasma gondii [10] = test: Protection against reactivation of type 2 Toxoplasma gondii ME49 infection in sulfadiazin-treated Ifngr1-/- CD1 mouse assessed as reduction in mouse death at 60 mg/kg, po administered twice daily via gavage for 8 days measured up to 30 days; assay type: functional, organism-based
[11] = biological target: T2, Alpha-2A adrenergic receptor (Homo sapiens, UniProt P08913); test: Antagonist activity at recombinant human Gi/Go-coupled ADRA2A expressed in CHOK1 cells assessed as reduction in UK14304-induced inhibition of forskolin-stimulated cAMP accumulation; assay type: cell-based; conditions: cho-k1
T2 sequence (P08913 whole entry): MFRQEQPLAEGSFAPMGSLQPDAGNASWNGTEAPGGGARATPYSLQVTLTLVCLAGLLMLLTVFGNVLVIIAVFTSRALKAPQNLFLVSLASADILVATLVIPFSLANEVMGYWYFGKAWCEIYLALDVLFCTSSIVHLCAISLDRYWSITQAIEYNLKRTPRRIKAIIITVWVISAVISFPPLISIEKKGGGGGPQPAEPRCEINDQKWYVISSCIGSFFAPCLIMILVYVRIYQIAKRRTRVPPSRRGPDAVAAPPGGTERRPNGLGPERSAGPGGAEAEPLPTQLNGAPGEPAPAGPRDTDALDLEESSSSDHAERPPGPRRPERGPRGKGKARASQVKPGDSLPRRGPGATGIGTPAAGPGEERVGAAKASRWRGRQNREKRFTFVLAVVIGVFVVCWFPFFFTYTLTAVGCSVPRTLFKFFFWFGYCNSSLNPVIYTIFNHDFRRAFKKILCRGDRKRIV

Toxoplasma gondii [12] = test: Protection against reactivation of type 2 Toxoplasma gondii ME49 infection in sulfadiazin-treated Ifngr1-/- CD1 mouse assessed as increase in mouse survival at 60 to 120 mg/kg, po administered twice daily via gavage for 8 days measured up to 30 days; assay type: functional, organism-based
[13] = Protein binding in mouse brain assessed as unbound fraction; assay type: ADME, tissue-based

Compound: Nc1ncnc2c1c(Oc1cc(C(F)(F)F)ccn1)nn2C1CC1
- Activity (Toxoplasma gondii [1]): Active
- Activity (Toxoplasma gondii [2]): Active
- inhibition at 1 µM [3]: > 50%
- T>EC50 [4]: 8 h
- efflux ratio at […], 2 µM (MDR1): 0.64
- Activity (Toxoplasma gondii [5]): Active
- Activity (Toxoplasma gondii [6]): Active
- Activity (Toxoplasma gondii [7]): Active
- EC50 (Toxoplasma gondii [8]): 168 nM
- Activity (Toxoplasma gondii [9]): Active
- Activity (Toxoplasma gondii [10]): Active
- inhibition (INH) [11]: 51%
- Activity (Toxoplasma gondii [12]): Active
- fraction unbound [13]: 0.101
